Measured values as given in patent publication US11091482B2, “Isoxazolyl-carbonyloxy azabicyclo[3.2.1]octanyl compounds as FXR activators” (ARDELYX, INC., priority 2016, dated 2021).
Read-outs that look alike come from different tables or passages of the source.

Columns and labels:
[1] = target: ligand binding domain of human FXR (Homo sapiens (Human), UniProt Q96RI1); test: FXR ligand binding assay (LanthaScreen FRET); settings: for Emax: read-out: % Efficacy;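 as to all read-outs here: TR-FRET coactivator recruitment: ligand-induced binding of fluorescein-labelled SRC2-2 peptide to GST-tagged FXR LBD detected via Tb anti-GST antibody, serial compound dilutions, 3-parameter logistic fit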
[2] = target: human Farnesoid X receptor ligand-binding domain/Gal4 DNA binding domain chimera (Homo sapiens (Human), UniProt Q96RI1); test: Cell-based FXR beta-lactamase reporter assay (FXR-UAS-bla HEK 293T cells); settings: for Emax: HEK-293T, read-out: % Efficacy; for EC50 / FXR pEC50 / % Efficacy: cellular FXR beta-lactamase reporter assay; for EC50 / FXR pEC50: -log EC50; for EC50: read-out: FXR pEC50 (converted); for % Efficacy: extent of activation relative to GW4064
Protocol: FXR activation was measured using a cell line and procedure obtained from Life Technologies (Cat #K1691). FXR-UAS-bla HEK 293T cells contain a human Farnesoid X receptor ligand-binding domain/Gal4 DNA binding domain chimera stably integrated into the CellSensor® UAS-bla HEK 293T cell line. The CellSensor® UAS-bla HEK 293T contains a beta-lactamase reporter gene under control of a UAS response element stably integrated into HEK 293T cells. Activation of FXR by bound ligands results in transcriptional activation of the beta-lactamase reporter gene, which is detected via assay of beta-lactamase activity. Cells are harvested and diluted into assay medium containing phenol red-free DMEM supplemented with 2% Charcoal-stripped FBS, pyruvate, non-essential amino acids. Cells are then transferred to a 384 well assay plate. Test compounds are dissolved in DMSO and a 3-fold serial dilution series is generated, then further diluted into assay medium. […] A FRET-based […] is loaded into cells as its acetomethoxy ester. Intracellular esterases liberate free CCF4, a cephalosporin core linking 7-hydroxycoumarin to fluorescein. In the presence of beta-lactamase activity produced in the presence of FXR agonists, cleavage of CCF4 spatially separates the two dyes and disrupts FRET, so that exciting the coumarin at 409 nm now produces a blue fluorescence signal at 447 nm. The change in FRET signal is plotted against the test compound concentration and fit to a 3-parameter logistical equation.

[3] = FXR ligand binding assay, -log EC50
[4] = FXR ligand binding assay, extent of activation relative to GW4064

Sequence of ligand binding domain of human FXR (Q96RI1 262-486): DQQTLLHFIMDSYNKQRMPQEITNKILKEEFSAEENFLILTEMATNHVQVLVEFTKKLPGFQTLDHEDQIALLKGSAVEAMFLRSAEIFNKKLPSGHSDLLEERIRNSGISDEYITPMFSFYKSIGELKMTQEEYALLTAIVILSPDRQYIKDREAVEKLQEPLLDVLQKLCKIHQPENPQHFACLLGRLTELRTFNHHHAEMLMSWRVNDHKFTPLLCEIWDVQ
Sequence of human Farnesoid X receptor ligand-binding domain/Gal4 DNA binding domain chimera (Q96RI1 262-486, stated change not applied): as the sequence (Q96RI1 262-486) above

Row | SMILES | Emax [1] [%] | Emax [2] [%] | EC50 [2] [nM] | FXR pEC50 [1, 3] | % Efficacy [1] [%] | FXR pEC50 [2] | % Efficacy [2] [%] | % Efficacy [1, 4] [%] | EC50 ([1]; FXR ligand binding assay, -log EC50, read-out: FXR pEC50 (converted)) [nM]
1 | CS(=O)(=O)NC(=O)c1ccc(N2[C@@H]3CC[C@H]2C[C@@H](OC(=O)c2c(-c4c(Cl)cccc4Cl)noc2C2CC2)C3)c(Cl)c1 [Compound I-52, (1R,3R,5S)-8-[2-chloro-4-(methanesulfonylcarbamoyl)phenyl]-8-azabicyclo[3.2.1]octan-3-yl 5-cyclopropyl-3-(2,6-dichlorophenyl)-1,2-oxazole-4-carboxylate] | 110 | 109 | 15.8 | – | – | – | – | – | –
2 | CCc1cc(C(=O)O)cc2sc(N3[C@@H]4CC[C@H]3C[C@@H](OC(=O)c3c(-c5c(Cl)cccc5Cl)noc3C3CC3)C4)nc12 [Compound I-60, 2-[(1R,3R,5S)-3-[5-cyclopropyl-3-(2,6-dichlorophenyl)-1,2-oxazole-4-carbonyloxy]-8-azabicyclo[3.2.1]octan-8-yl]-4-ethyl-1,3-benzothiazole-6-carboxylic Acid] | 119 | 104 | 6.31 | 7 | – | – | – | – | –
3 | Cc1cc(C(=O)O)cc2sc(N3[C@@H]4CC[C@H]3C[C@@H](OC(=O)c3c(-c5ccccc5C(F)(F)F)noc3C3CC3)C4)nc12 [Compound I-61, 2-[(1R,3R,5S)-3-{5-cyclopropyl-3-[2-(trifluoromethyl)phenyl]-1,2-oxazole-4-carbonyloxy}-8-azabicyclo[3.2.1]octan-8-yl]-4-methyl-1,3-benzothiazole-6-carboxylic Acid] | 139 | 102 | 10 | 7.1 | – | – | – | – | –
4 | Cn1c(N2[C@@H]3CC[C@H]2C[C@@H](OC(=O)c2c(-c4c(Cl)cccc4Cl)noc2C2CC2)C3)nc2c(F)cc(C(=O)O)cc21 [Compound I-31, 2-[(1R,3R,5S)-3-[5-cyclopropyl-3-(2,6-dichlorophenyl)-1,2-oxazole-4-carbonyloxy]-8-azabicyclo[3.2.1]octan-8-yl]-4-fluoro-1-methyl-1H-1,3-benzodiazole-6-carboxylic Acid] | – | – | – | 6.6 | 63 | 6.4 | 100 | – | –
5 | Cc1cc(C(=O)O)cc2sc(N3[C@@H]4CC[C@H]3C[C@@H](OC(=O)c3c(-c5c(Cl)cccc5Cl)noc3C3CC3)C4)nc12 [Compound I-11, 2-[(1R,3R,5S)-3-[5-Cyclopropyl-3-(2,6-dichlorophenyl)-1,2-oxazole-4-carbonyloxy]-8-azabicyclo[3.2.1]octan-8-yl]-4-methyl-1,3-benzothiazole-6-carboxylic Acid] | 110 | 121 | 2.51 | – | – | – | – | – | –
6 | O=C(O)CNC(=O)c1cc(F)c2nc(N3[C@@H]4CC[C@H]3C[C@@H](OC(=O)c3c(-c5c(Cl)cccc5Cl)noc3C3CC3)C4)sc2c1 [Compound I-4, 2-({2-[(1R,3R,5S)-3-[5-cyclopropyl-3-(2,6-dichlorophenyl)-1,2-oxazole-4-carbonyloxy]-8-azabicyclo[3.2.1]octan-8-yl]-4-fluoro-1,3-benzothiazol-6-yl}formamido)acetic Acid] | 76 | 109 | 794 | – | – | – | – | – | –
7 | O=C(O)c1cc(C(F)(F)F)c2nc(N3[C@@H]4CC[C@H]3C[C@@H](OC(=O)c3c(-c5c(Cl)cccc5Cl)noc3C3CC3)C4)sc2c1 [Compound I-10, 2-[(1R,3R,5S)-3-[5-cyclopropyl-3-(2,6-dichlorophenyl)-1,2-oxazole-4-carbonyloxy]-8-azabicyclo[3.2.1]octan-8-yl]-4-(trifluoromethyl)-1,3-benzothiazole-6-carboxylic Acid] | 102 | 104 | 25.1 | – | – | – | – | – | –
8 | CC1(c2onc(-c3c(Cl)cccc3Cl)c2C(=O)OC2C[C@H]3CC[C@@H](C2)N3c2nc3c(F)cc(C(=O)O)cc3s2)CC1 (single isomer, unassigned) [Compound I-26] | – | – | – | 7.4 | – | 7.5 | – | – | –
9 | CC(C)S(=O)(=O)NC(=O)c1ccc(N2[C@@H]3CC[C@H]2C[C@@H](OC(=O)c2c(-c4c(Cl)cccc4Cl)noc2C2CC2)C3)cc1 [Compound I-47, (1R,3R,5S)-8-{4-[(propane-2-sulfonyl)carbamoyl]phenyl}-8-azabicyclo[3.2.1]octan-3-yl 5-cyclopropyl-3-(2,6-dichlorophenyl)-1,2-oxazole-4-carboxylate] | – | – | – | 7.8 | – | 8.5 | 124 | 168 | –
10 | CS(=O)(=O)NC(=O)c1ccc(N2[C@@H]3CC[C@H]2C[C@@H](OC(=O)c2c(-c4c(Cl)cccc4Cl)noc2C2CC2)C3)cc1 [Compound I-44, (1R,3R,5S)-8-[4-(methanesulfonylcarbamoyl)phenyl]-8-azabicyclo[3.2.1]octan-3-yl 5-cyclopropyl-3-(2,6-dichlorophenyl)-1,2-oxazole-4-carboxylate] | 124 | 117 | 6.31 | – | – | – | – | – | –
11 | O=C(O[C@H]1C[C@H]2CC[C@@H](C1)N2c1ccc2c(C(=O)O)noc2c1)c1c(-c2c(Cl)cccc2Cl)noc1C1CC1 [Compound I-29, 6-[(1R,3R,5S)-3-[5-cyclopropyl-3-(2,6-dichlorophenyl)-1,2-oxazole-4-carbonyloxy]-8-azabicyclo[3.2.1]octan-8-yl]-1,2-benzoxazole-3-carboxylic Acid] | 98 | 124 | 251 | – | – | – | – | – | 316
12 | Cn1cc(C(=O)O)c2ccc(N3[C@@H]4CC[C@H]3C[C@@H](OC(=O)c3c(-c5c(Cl)cccc5Cl)noc3C3CC3)C4)cc21 [Compound I-28, 6-[(1R,3R,5S)-3-[5-cyclopropyl-3-(2,6-dichlorophenyl)-1,2-oxazole-4-carbonyloxy]-8-azabicyclo[3.2.1]octan-8-yl]-1-methyl-1H-indole-3-carboxylic Acid] | 94 | 117 | 25.1 | – | – | – | – | – | –
13 | O=C(O)c1cc(F)cc(S(=O)(=O)N2[C@@H]3CC[C@H]2C[C@@H](OC(=O)c2c(-c4c(Cl)cccc4Cl)noc2C2CC2)C3)c1 [Compound I-56, 3-{[(1R,3R,5S)-3-[5-cyclopropyl-3-(2,6-dichlorophenyl)-1,2-oxazole-4-carbonyloxy]-8-azabicyclo[3.2.1]octan-8-yl]sulfonyl}-5-fluorobenzoic Acid] | 56 | 78 | 631 | – | – | – | – | – | –
14 | O=C(O)c1cc(F)c2nc(N3[C@@H]4CC[C@H]3C[C@@H](OC(=O)c3c(-c5ccccc5)noc3C3CC3)C4)sc2c1 [Compound I-13, 2-[(1R,3R,5S)-3-(5-Cyclopropyl-3-phenyl-1,2-oxazole-4-carbonyloxy)-8-azabicyclo[3.2.1]octan-8-yl]-4-fluoro-1,3-benzothiazole-6-carboxylic Acid] | – | – | – | 6.7 | – | 6 | 93 | 40 | –
15 | O=C(O)c1ncc(N2[C@@H]3CC[C@H]2C[C@@H](OC(=O)c2c(-c4c(Cl)cccc4Cl)noc2C2CC2)C3)cn1 [Compound I-54, 5-[(1R,3R,5S)-3-[5-Cyclopropyl-3-(2,6-dichlorophenyl)-1,2-oxazole-4-carbonyloxy]-8-azabicyclo[3.2.1]octan-8-yl]pyrimidine-2-carboxylic Acid] | 46 | 115 | > 20000 | – | – | – | – | – | –
16 | COc1cc(C(=O)O)cc2sc(N3[C@@H]4CC[C@H]3C[C@@H](OC(=O)c3c(-c5c(F)cccc5F)noc3C3CC3)C4)nc12 [Compound I-17, 2-[(1R,3R,5S)-3-[5-cyclopropyl-3-(2,6-difluorophenyl)-1,2-oxazole-4-carbonyloxy]-8-azabicyclo[3.2.1]octan-8-yl]-4-methoxy-1,3-benzothiazole-6-carboxylic Acid] | 44 | 112 | 126 | – | – | – | – | – | –
17 | O=C(O)c1cc(F)c2nc(N3[C@@H]4CC[C@H]3C[C@@H](OC(=O)c3c(-c5c(Cl)cccc5OC(F)F)noc3C3CC3)C4)sc2c1 [Compound I-15, 2-[(1R,3R,5S)-3-{3-[2-chloro-6-(difluoromethoxy)phenyl]-5-cyclopropyl-1,2-oxazole-4-carbonyloxy}-8-azabicyclo[3.2.1]octan-8-yl]-4-fluoro-1,3-benzothiazole-6-carboxylic Acid] | – | – | – | 7.4 | – | 7.4 | 108 | 71 | –
18 | O=C(NCCS(=O)(=O)O)c1cc(F)c2nc(N3[C@@H]4CC[C@H]3C[C@@H](OC(=O)c3c(-c5c(Cl)cccc5Cl)noc3C3CC3)C4)sc2c1 [Compound I-5, 2-({2-[(1R,3R,5S)-3-[5-cyclopropyl-3-(2,6-dichlorophenyl)-1,2-oxazole-4-carbonyloxy]-8-azabicyclo[3.2.1]octan-8-yl]-4-fluoro-1,3-benzothiazol-6-yl}formamido)ethane-1-sulfonic Acid] | 77 | 72 | 2510 | – | – | – | – | – | –
19 | O=C(O)c1ccc(N2[C@@H]3CC[C@H]2C[C@@H](OC(=O)c2c(-c4c(Cl)cccc4Cl)noc2C2CC2)C3)cc1 [Compound I-34, 4-[(1R,3R,5S)-3-[5-Cyclopropyl-3-(2,6-dichlorophenyl)-1,2-oxazole-4-carbonyloxy]-8-azabicyclo[3.2.1]octan-8-yl]benzoic Acid] | 79 | 107 | 20 | – | – | – | – | – | –
